pIC50: −log10 of the molar value. Where a SMILES comes first, the peptide text is derived from it.
Columns and labels:
Assay in all cases: biochemical
Assay type in all cases: binding
HLA-DRB1*0701 = HLA-DRB1*0701 (Homo sapiens, UniProt P01903+P01911, A100R/A102G/A103Q/D57E/D86V/E43K/F76Y/K127E/L162R/M171V/P40G/Q125H/Q99D/R33Q/R42Y/R54Q/S133A/S66F/T210M/V115G/Y107V/Y59L/Y89S); settings: binding inhibition assay; NB = non-binder (no dose-dependent inhibition); read-out: DRB1*0701 IC50
Method: (§1) The binding assay conducted by EpiVax yields an indirect measure of peptide-MHC affinity as it utilizes a competition assay format per the methodology described in Steere et al. ([35]). […] Post incubation, the mixtures are moved to a 96-well plate coated with anti-HLA-DR antibody to capture HLA-peptide complexes. Time-resolved fluorescence measurement of the bound labeled reference peptide complex present in each mixture is detected with a europium-linked probe via fluorescent spectrophotometry using a SpectraMax M5 system. HLA binding affinity of each test peptide is expressed as the percent inhibition of reference peptide binding. Percent inhibition values (across the test peptide titration range) are used to calculate the half maximal inhibitory concentration (IC50) of each test peptide. For these studies, test peptides were assessed using a range of final concentrations from 100,000 nM to 100 nM. The panel of commercially-available HLA-DRB1 allele monomers used includes: *0101, *0301, *0401, *0701, *0801, *1101, *1301 and *1501. EpiVax established HLA-DRB1 binding affinity cutoffs were used to rank the IC50 values.
(§2) In vitro HLA binding assays (step 2 of workflow shown in Figure 1 ) were carried out with the synthesized peptides to verify the EpiMatrix outputs and provide a measure of accuracy for comparing in silico-predicted HLA-DRB1 allele binding to laboratory assessments of HLA-DRB1 allele binding. These assessments were conducted using a competition assay format whereby IC50 values were calculated based on the ability of the test peptide to compete with a labeled, high binding affinity reference peptide for HLA-DRB1 molecule binding. Sequences for the high affinity reference peptides and the negative control peptide, known not to bind any of the HLA-DRB1 molecules, are provided in Table S18 .

HLA-DRB1*0101 = molecular target: T1, HLA-DRB1*0101 (Homo sapiens, UniProt P01903+P01911, A100R/D57E/F55L/F60I/F76Y/I96L/L162R/M171V/P40L/Q125E/R42F/V115G/Y59C); settings: binding inhibition assay; NB = non-binder (no dose-dependent inhibition); read-out: DRB1*0101 IC50
T1 construct: purchased
Method: as §1, §2

HLA-DRB1*0801 = HLA-DRB1*0801 (Homo sapiens, UniProt P01903+P01911, A100R/A103L/A169T/D86S/F76Y/H45Y/I96F/K41T/L162R/M171V/P40S/Q125H/Q178H/Q39Y/Q99D/R218S/R42G/S66Y/V115G/W38E); settings: binding inhibition assay; NB = non-binder (no dose-dependent inhibition); read-out: DRB1*0801 IC50
Method: as §1, §2

HLA-DRB1*1501 = molecular target: T2, HLA-DRB1*1501 (Homo sapiens, UniProt P01903+P01911); settings: binding inhibition assay; NB = non-binder (no dose-dependent inhibition); read-out: DRB1*1501 IC50
T2 construct: purchased
Method: as §1, §2

HLA-DRB1*1101 = HLA-DRB1*1101 (Homo sapiens, UniProt P01903+P01911, A100R/A169T/A87E/I96F/K41T/L162R/M171V/P40S/Q125H/Q178H/Q39Y/Q99D/R42S/S66Y/T262R/V115G/W38E); settings: binding inhibition assay; NB = non-binder (no dose-dependent inhibition); read-out: DRB1*1101 IC50
Chain of HLA-DRB1*1101 (P01903 26-254 limits assumed, other chains not shown): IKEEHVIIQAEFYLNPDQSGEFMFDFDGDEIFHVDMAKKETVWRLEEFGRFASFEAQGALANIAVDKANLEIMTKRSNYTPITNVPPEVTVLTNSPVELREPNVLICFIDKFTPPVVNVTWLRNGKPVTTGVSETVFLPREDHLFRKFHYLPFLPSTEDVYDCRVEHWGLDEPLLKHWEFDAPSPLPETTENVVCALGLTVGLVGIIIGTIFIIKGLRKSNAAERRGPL
Method: as §1, §2

HLA-DRB1*1301 = HLA-DRB1*1301 (Homo sapiens, UniProt P01903+P01911, A100E/A169T/K41T/L162R/M171V/P40S/Q125H/Q178H/Q39Y/Q99D/R42S/S66N/T262R/W38E/Y61H); settings: binding inhibition assay; NB = non-binder (no dose-dependent inhibition); read-out: DRB1*1301 IC50
Method: as §1, §2

HLA-DRB1*0401 = molecular target: T3, HLA-DRB1*0401 (Homo sapiens, UniProt P01903+P01911, A100K/A169T/F76Y/I96L/K127E/L162R/M171V/N62H/P40V/Q125Y/R42H/S133A/S149N/S66Y/V115G/V209L/W38E); settings: binding inhibition assay; NB = non-binder (no dose-dependent inhibition); read-out: DRB1*0401 IC50
T3 construct: purchased
Method: as §1, §2

CSCC[C@H](N)C(=O)N[C@@H](CCCNC(=N)N)C(=O)N[C@@H](CCCCN)C(=O)N[C@@H](CC(C)C)C(=O)N[C@@H](Cc1ccc(O)cc1)C(=O)N[C@@H](CS)C(=O)N[C@H](C(=O)N[C@@H](CC(C)C)C(=O)N[C@@H](CC(C)C)C(=O)N[C@@H](CC(C)C)C(=O)N[C@@H](CO)C(=O)N[C@@H](C)C(=O)N[C@@H](Cc1ccccc1)C(=O)N[C@@H](CCC(=O)O)C(=O)N[C@@H](Cc1ccccc1)C(=O)N[C@H](C(=O)N[C@@H](Cc1ccc(O)cc1)C(N)=O)[C@@H](C)O)C(C)C [AMA1_001] (H-MRKLYCVLLLSAFEFTY-NH2)
pIC50 (HLA-DRB1*0701): 6.69 | pIC50 (HLA-DRB1*0101): 6.40 | pIC50 (HLA-DRB1*0801): 4.76 | pIC50 (HLA-DRB1*1501): 6.12 | pIC50 (HLA-DRB1*1101): 6.49 | pIC50 (HLA-DRB1*1301): 5.75 | pIC50 (HLA-DRB1*0401): 5.83

CC[C@H](C)[C@H](NC(=O)[C@H](CCSC)NC(=O)[C@H](Cc1ccc(O)cc1)NC(=O)[C@@H](NC(=O)[C@H](Cc1ccccc1)NC(=O)[C@H](CCC(=O)O)NC(=O)[C@H](Cc1ccccc1)NC(=O)[C@H](C)N)[C@@H](C)O)C(=O)N[C@@H](CC(N)=O)C(=O)N[C@@H](Cc1ccccc1)C(=O)NCC(=O)N[C@@H](CCCNC(=N)N)C(=O)NCC(=O)N[C@@H](CCC(N)=O)C(=O)N[C@@H](CC(N)=O)C(=O)N[C@@H](Cc1ccc(O)cc1)C(=O)N[C@@H](Cc1c[nH]c2ccccc12)C(=O)N[C@@H](CCC(=O)O)C(N)=O [AMA1_002] (H-AFEFTYMINFGRGQNYWE-NH2)
pIC50 (HLA-DRB1*0701): 6.95 | pIC50 (HLA-DRB1*0101): 6.93 | pIC50 (HLA-DRB1*0801): 6.62 | pIC50 (HLA-DRB1*1501): 7.12 | pIC50 (HLA-DRB1*1101): 6.63 | pIC50 (HLA-DRB1*1301): 6.14 | pIC50 (HLA-DRB1*0401): 7.35

CC(=O)N[C@@H](Cc1ccccc1)C(=O)N[C@@H](CCC(N)=O)C(=O)N[C@@H](CC(N)=O)C(=O)N[C@@H](Cc1ccc(O)cc1)C(=O)N[C@H](C(=O)N[C@@H](Cc1ccc(O)cc1)C(=O)N[C@@H](CC(C)C)C(=O)N[C@@H](CO)C(=O)N[C@@H](CCCCN)C(=O)N[C@@H](CC(N)=O)C(=O)N[C@H](C(=O)N[C@H](C(=O)N[C@@H](CC(=O)O)C(=O)N[C@@H](CC(N)=O)C(=O)N[C@@H](Cc1c[nH]c2ccccc12)C(=O)N[C@@H](CCC(=O)O)C(N)=O)C(C)C)C(C)C)[C@@H](C)O [AMA1_004] (Ac-FQNYTYLSKNVVDNWE-NH2)
pIC50 (HLA-DRB1*0701): 5.02 | pIC50 (HLA-DRB1*0101): 7.80 | pIC50 (HLA-DRB1*0801): 8.00 | pIC50 (HLA-DRB1*1501): 6.61 | pIC50 (HLA-DRB1*1101): 6.25 | pIC50 (HLA-DRB1*1301): 4.16 | pIC50 (HLA-DRB1*0401): 5.01

CC[C@H](C)[C@H](NC(=O)[C@@H](NC(=O)[C@H](C)NC(=O)[C@H](CC(C)C)NC(C)=O)[C@@H](C)O)C(=O)N[C@@H](CC(C)C)C(=O)N[C@@H](CCSC)C(=O)N[C@H](C(=O)N[C@@H](Cc1ccc(O)cc1)C(=O)N[C@@H](CC(C)C)C(=O)N[C@@H](Cc1ccc(O)cc1)C(=O)N[C@@H](CCCCN)C(=O)N[C@@H](CCCNC(=N)N)C(=O)N[C@@H](CCCCN)C(=O)NCC(=O)N[C@@H](CC(N)=O)C(=O)N[C@@H](C)C(=O)N[C@@H](CCC(=O)O)C(=O)N[C@@H](CCCCN)C(=O)N[C@@H](Cc1ccc(O)cc1)C(=O)N[C@@H](CC(=O)O)C(=O)N[C@@H](CCCCN)C(N)=O)C(C)C [AMA1_009] (Ac-LATILMVYLYKRKGNAEKYDK-NH2)
pIC50 (HLA-DRB1*0701): 5.47 | pIC50 (HLA-DRB1*0101): 5.00 | pIC50 (HLA-DRB1*0801): 5.10 | pIC50 (HLA-DRB1*1501): 5.61 | pIC50 (HLA-DRB1*1101): 6.78 | pIC50 (HLA-DRB1*1301): 5.36 | pIC50 (HLA-DRB1*0401): 4.96

CC[C@H](C)[C@H](NC(=O)[C@H](Cc1ccccc1)NC(=O)[C@H](CC(N)=O)NC(=O)[C@@H](NC(=O)[C@H](CC(N)=O)NC(=O)[C@H](CCCCN)NC(=O)[C@@H](NC(=O)[C@H](CC(N)=O)NC(=O)[C@H](CC(N)=O)NC(=O)[C@@H](NC(=O)[C@H](CC(N)=O)NC(=O)[C@H](CC(=O)O)NC(=O)CNC(=O)[C@@H](NC(=O)[C@H](Cc1ccc(O)cc1)NC(=O)[C@H](Cc1ccccc1)NC(=O)[C@@H](N)Cc1c[nH]cn1)C(C)C)[C@@H](C)CC)C(C)C)C(C)C)C(=O)N[C@@H](CCC(=O)O)C(N)=O [CYRPA_005] (H-HFYVGDNINNVKNVNFIE-NH2)
pIC50 (HLA-DRB1*0701): 6.86 | pIC50 (HLA-DRB1*0101): 6.74 | pIC50 (HLA-DRB1*0801): 4.93 | pIC50 (HLA-DRB1*1501): 6.91 | pIC50 (HLA-DRB1*1101): 6.53 | pIC50 (HLA-DRB1*1301): 6.20 | pIC50 (HLA-DRB1*0401): 7.11

CC[C@H](C)[C@H](NC(=O)[C@H](CCCCN)NC(=O)CNC(=O)[C@@H](NC(=O)[C@H](CC(C)C)NC(=O)[C@H](CCCCN)NC(=O)[C@H](CCCNC(=N)N)NC(=O)[C@H](CC(N)=O)NC(=O)[C@H](CO)NC(=O)[C@H](CC(C)C)NC(=O)[C@H](CC(=O)O)NC(=O)[C@H](CC(N)=O)NC(=O)[C@H](Cc1c[nH]c2ccccc12)NC(=O)[C@H](Cc1ccc(O)cc1)NC(=O)[C@H](CC(=O)O)NC(=O)[C@@H](NC(=O)CNC(C)=O)[C@@H](C)O)C(C)C)C(=O)N[C@@H](CC(N)=O)C(=O)N[C@H](C(=O)N[C@@H](CC(N)=O)C(N)=O)[C@@H](C)O [EBA175_011] (Ac-GTDYWNDLSNRKLVGKINTN-NH2)
pIC50 (HLA-DRB1*0101): 6.34 | pIC50 (HLA-DRB1*0801): < 4.00 | pIC50 (HLA-DRB1*1501): 4.27 | pIC50 (HLA-DRB1*1101): 4.54 | pIC50 (HLA-DRB1*1301): < 4.00 | pIC50 (HLA-DRB1*0401): 4.28

CC[C@H](C)[C@H](NC(=O)[C@H](CC(=O)O)NC(=O)[C@@H]1CCCN1C(=O)[C@H](CC(C)C)NC(=O)[C@@H](NC(=O)[C@H](CO)NC(=O)[C@H](CO)NC(=O)[C@H](CC(N)=O)NC(=O)[C@H](Cc1ccc(O)cc1)NC(=O)[C@H](CC(C)C)NC(=O)[C@H](CO)NC(=O)[C@@H]1CCCN1C(=O)[C@@H](NC(=O)[C@H](CC(N)=O)NC(=O)[C@H](CO)NC(=O)[C@H](Cc1c[nH]cn1)NC(=O)[C@H](CC(C)C)NC(=O)[C@H](Cc1c[nH]cn1)NC(=O)[C@H](CO)NC(=O)[C@H](CC(N)=O)NC(=O)[C@H](CCCCN)NC(C)=O)[C@@H](C)CC)[C@@H](C)CC)C(=O)N[C@@H](CC(N)=O)C(=O)N[C@@H](CCCCN)C(=O)N[C@@H](CO)C(N)=O [RIPR_008] (Ac-KNSHLHSNIPSLYNSSILPDINKS-NH2)
pIC50 (HLA-DRB1*0701): 4.18 | pIC50 (HLA-DRB1*0101): 6.40 | pIC50 (HLA-DRB1*0801): 5.03 | pIC50 (HLA-DRB1*1501): 6.15 | pIC50 (HLA-DRB1*1101): 4.04 | pIC50 (HLA-DRB1*0401): 4.31

CC[C@H](C)[C@H](NC(=O)[C@H](CC(C)C)NC(=O)[C@H](Cc1c[nH]cn1)NC(=O)[C@H](Cc1ccccc1)NC(=O)[C@H](CCCCN)NC(=O)[C@H](CO)NC(=O)[C@H](CCCCN)NC(C)=O)C(=O)N[C@@H](CO)C(=O)N[C@@H](CCCNC(=N)N)C(=O)N[C@@H](CC(N)=O)C(=O)N[C@@H](CO)C(=O)N[C@@H](CCCNC(=N)N)C(=O)N[C@H](C(=O)N[C@@H](CC(N)=O)C(=O)N[C@@H](CCC(N)=O)C(=O)N[C@@H](Cc1ccc(O)cc1)C(N)=O)[C@@H](C)O [RIPR_009] (Ac-KSKFHLISRNSRTNQY-NH2)
pIC50 (HLA-DRB1*0101): 6.36 | pIC50 (HLA-DRB1*0801): 4.20 | pIC50 (HLA-DRB1*1501): 4.80 | pIC50 (HLA-DRB1*1101): 7.12 | pIC50 (HLA-DRB1*1301): 7.19 | pIC50 (HLA-DRB1*0401): 4.23

From publication PMC8294059, “Identification and Immune Assessment of T Cell Epitopes in Five Plasmodium falciparum Blood Stage Antigens to Facilitate Vaccine Candidate Selection and Optimization” (Frontiers in Immunology, 2021)
